Results from ChEMBL document CHEMBL5550109, “Synergistic therapeutics: Co-targeting histone deacetylases and ribonucleotide reductase for enhanced cancer treatment” (Eur J Med Chem, 2024).

biological target: T1, Ribonucleoside-diphosphate reductase subunit M2 (Homo sapiens, UniProt P31350); assay: Inhibition of human recombinant RRM2; conditions: not given
T1 sequence (P31350 whole entry): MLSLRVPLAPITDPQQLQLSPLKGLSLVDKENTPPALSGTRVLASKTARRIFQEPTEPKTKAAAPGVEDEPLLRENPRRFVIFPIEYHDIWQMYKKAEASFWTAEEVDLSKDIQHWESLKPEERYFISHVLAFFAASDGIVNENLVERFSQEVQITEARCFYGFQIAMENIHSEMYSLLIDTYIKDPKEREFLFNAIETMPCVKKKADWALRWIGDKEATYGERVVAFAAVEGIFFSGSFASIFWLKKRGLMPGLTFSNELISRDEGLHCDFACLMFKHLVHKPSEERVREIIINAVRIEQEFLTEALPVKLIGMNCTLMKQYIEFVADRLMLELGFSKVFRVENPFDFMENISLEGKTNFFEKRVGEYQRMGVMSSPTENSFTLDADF

Question: With `NC(=O)NO` [HYDROXYUREA] as the molecule, how does the IC50 read?
Answer: 601 µM

tested on: HCT-116; assay: Growth inhibition of human HCT-116 cells; assay type: functional; conditions: pooled result: one value given for 3 cell lines, strains, targets or settings

Question: For `COc1ccc(/C=N/Nc2nc(C)c(C(=O)NO)s2)cc1`, which GI50 is on record?
Answer: 32.8 µM

Question: Which GI50 does the source give for `Cc1nc(N/N=C/c2ccccc2O)sc1C(=O)NO` here?
Answer: 36.7 µM

Question: With `Cc1nc(N/N=C/c2ccccc2)sc1C(=O)NO` as the molecule, how does the GI50 read?
Answer: 23.9 µM

Question: With `Cc1nc(N/N=C/c2ccc([N+](=O)[O-])cc2)sc1C(=O)NO` as the molecule, how does the GI50 read?
Answer: 40.7 µM

Question: Which GI50 does the source give for `C/C(=N\Nc1nc(C)c(C(=O)NO)s1)c1ccc(Cl)cc1` here?
Answer: > 50 µM

Question: With `C/C(=N\Nc1nc(C)c(C(=O)NO)s1)c1ccccc1` as the molecule, how does the GI50 read?
Answer: > 50 µM

Question: With `COc1cccc(/C=N/Nc2nc(C)c(C(=O)NO)s2)c1` as the molecule, how does the GI50 read?
Answer: > 50 µM

Question: How did the GI50 turn out when `Cc1nc(N/N=C/c2ccc(N(C)C)cc2)sc1C(=O)NO` was run?
Answer: 20.8 µM

Question: For `Cc1nc(N/N=C/c2ccc(Cl)cc2)sc1C(=O)NO`, which GI50 is on record?
Answer: 21.6 µM
